Biological target: T1, Deoxyhypusine synthase (Plasmodium falciparum, UniProt Q9GSW0)
T1 sequence (Q9GSW0 whole entry): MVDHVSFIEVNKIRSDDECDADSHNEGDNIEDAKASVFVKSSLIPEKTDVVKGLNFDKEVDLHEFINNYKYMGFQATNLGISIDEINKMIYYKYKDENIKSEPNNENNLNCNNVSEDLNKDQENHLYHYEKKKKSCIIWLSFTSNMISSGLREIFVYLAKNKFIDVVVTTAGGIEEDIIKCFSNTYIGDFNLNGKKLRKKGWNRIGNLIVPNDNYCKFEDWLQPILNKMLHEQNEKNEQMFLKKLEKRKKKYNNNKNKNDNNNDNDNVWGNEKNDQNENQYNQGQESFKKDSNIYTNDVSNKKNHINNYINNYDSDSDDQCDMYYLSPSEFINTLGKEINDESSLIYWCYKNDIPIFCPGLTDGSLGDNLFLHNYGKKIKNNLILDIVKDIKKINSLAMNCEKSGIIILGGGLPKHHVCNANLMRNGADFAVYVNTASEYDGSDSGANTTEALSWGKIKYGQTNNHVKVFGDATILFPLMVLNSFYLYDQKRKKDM
Experiment: Inhibition of recombinant deoxyhypusine synthase in Plasmodium falciparum NF54

SMILES: N=C(N)NCCCCCCCN
- Ki: 0.1 µM

SMILES: NCCCCCCCN
- Ki: 50 µM

From ChEMBL document CHEMBL1143744, “Modification of eukaryotic initiation factor 5A from Plasmodium vivax by a truncated deoxyhypusine synthase from Plasmodium falciparum: An enzyme with dual enzymatic properties” (Bioorg Med Chem, 2007)
